Patent US20190045783A1, “SUBSTITUTED IMIDAZOLYLCARBOXAMIDES AS PESTICIDES” (BAYER CROPSCIENCE AKTIENGESELLSCHAFT, priority 2016, published 2019)
Read-outs that look alike come from different tables or passages of the source.

What was measured:
[1] = tested on: green peach aphid (Myzus persicae); experiment: Myzus persicae spray test (Chinese cabbage leaf discs); type: in vivo; conditions: for pest or weed control at 500 g/ha: Myzus persicae, foliar, read-out: efficacy in %
Protocol: Myzus persicae—Spray Test
To produce a suitable active ingredient formulation, 1 part by weight of active ingredient is dissolved with the stated parts by weight of solvent and made up with water containing an emulsifier concentration of 1000 ppm until the desired concentration is attained. To produce further test concentrations, the formulation is diluted with emulsifier-containing water.
After 5-6 days, the efficacy in % is determined. 100% means that all the aphids have been killed; 0% means that no aphids have been killed.

[2] = tested on: green peach aphids (Myzus persicae); experiment: Myzus persicae oral test (MYZUPE O), comparison with prior art; type: in vivo; conditions: for Emax at 4 ppm / Emax at 0.8 ppm: Myzus persicae, po, read-out: % efficacy
Protocol: Myzus persicae—Oral Test (MYZUPE O)
(§1) Solvent: 100 parts by weight of acetone
50 μl of the active compound preparation are transferred into microtitre plates and made up to a final volume of 200 μl with 150 μl of IPL41 insect medium (33%+15% sugar). Subsequently, the plates are sealed with parafilm, which a mixed population of green peach aphids (Myzus persicae) within a second microtitre plate is able to puncture and imbibe the solution through it.
(§2) After the desired period of time (dat), the efficacy in % is determined. 100% means that all the aphids have been killed; 0% means that no aphids have been killed.

[3] = tested on: green peach aphids (Myzus persicae); experiment: Myzus persicae oral test; type: in vivo; conditions: for pest or weed control at 20 ppm: Myzus persicae, 120 h, read-out: efficacy in %
Protocol: as §1
Subsequently, the plates are sealed with parafilm, which a mixed population of green peach aphids (Myzus persicae) within a second microtitre plate is able to puncture and imbibe the solution through it.
After 5 days, the efficacy in % is determined. 100% means that all the aphids have been killed; 0% means that no aphids have been killed.

[4] = tested on: green peach aphid (Myzus persicae); experiment: Myzus persicae spray test (MYZUPE), comparison with prior art; type: in vivo; conditions: for Emax at 100 g/ha: Myzus persicae, read-out: % efficacy
Protocol: Myzus persicae—Spray Test (MYZUPE)
Emulsifier: alkylaryl polyglycol ether
as §2

[5] = log P by HPLC on reversed-phase column (C18), EEC directive 79/831 Annex V.A8; type: physicochemical; conditions: for chromatographic logP: reversed-phase HPLC column (C18)
[6] = application rate 500 g/ha, after 5-6 days, Chinese cabbage leaf discs, 100% = all aphids killed
[7] = application rate 20 ppm, after 5 days, oral, 100% = all aphids killed
[8] = neutral range, pH 7.8, HPLC C18, 43° C., Table 1, read-out: logP [n]
[9] = 120 h, MYZUPE, 100 g of ai/ha, 5 dat
[10] = neutral range, pH 7.8, HPLC C18, 43° C., preparation examples, read-out: log P[n]
[11] = neutral range, pH 7.8, HPLC C18, 43° C., Table 1

Compound	efficacy in % [1, 6]	efficacy in % [3, 7]	logP [n] ([5]; pH 7.8)	further results
2-(Ethylcarbamothioyl)-N,1-dimethyl-N-(pyridin-3-yl)-1H-imidazole-5-carboxamide [I-1-056]	100%	100%	1.42	% efficacy ([2]; MYZUPE O, 0.8 ppm, 5 dat): 100%; % efficacy ([2]; MYZUPE O, 4 ppm, 5 dat): 100%; % efficacy ([4]; MYZUPE, 100 g of ai/ha, 5 dat): 100%
CN(C(=O)c1cnc(/C=N/OCc2cccnc2)n1C)c1cccnc1 [I-1-024]	–	–	–	Emax at 4 ppm ([2]; 144 h, MYZUPE O, 4 ppm, 6 dat): 90%; pest or weed control at 20 ppm [3, 7]: 100%; chromatographic logP [5, 8]: 1.24
CCOC(=O)c1ncc(C(=O)N(C)c2cccnc2)n1C [I-1-025]	–	–	–	pest or weed control at 500 g/ha [1]: 90%; Emax at 0.8 ppm ([2]; 120 h): 90%; Emax at 4 ppm ([2]; 120 h): 100%; pest or weed control at 20 ppm ([3]; po): 100%; Emax at 100 g/ha [4]: 90%; chromatographic logP [5, 8]: 1.1
CCN(C(=O)c1cnc(/C=N/OCC2CC2)n1C)c1cccnc1 [I-1-042]	100%	100%	1.86	–
CCCO/N=C/c1ncc(C(=O)N(CC)c2cccnc2)n1C [I-1-043]	90%	100%	1.85	–
CCN(C(=O)c1cnc(C=NOC)n1C)c1cccnc1 [I-1-044]	–	–	–	pest or weed control at 500 g/ha [1, 6]: 100%; Emax at 4 ppm ([2]; 120 h, MYZUPE O, 4 ppm, 5 dat): 100%; Emax at 100 g/ha [4, 9]: 90%; chromatographic logP [5, 8]: 1.29
CCNC(=O)c1ncc(C(=O)N(C)c2cccnc2)n1C [I-1-046, N^2-Ethyl-N^5,1-dimethyl-N^5-(pyridin-3-yl)-1H-imidazole-2,5-dicarboxamide]	–	–	–	pest or weed control at 500 g/ha [1, 6]: 100%; pest or weed control at 20 ppm [3, 7]: 100%; chromatographic logP ([5]; acidic range, pH 2.7, HPLC C18, 43° C., preparation examples, read-out: log P[a]): 0.8; chromatographic logP [5, 10]: 0.97
CN(C(=O)c1cnc(C(=O)NCC(F)(F)F)n1C)c1cccnc1 [I-1-048]	100%	100%	1.42	–
COCCOC(=O)N/N=C/c1ncc(C(=O)N(C)c2cccnc2)n1C [I-1-049]	90%	100%	1.26	–
CCO/N=C/c1ncc(C(=O)N(CC)c2cccnc2)n1C [I-1-051]	100%	100%	1.66	–
CN(C(=O)c1cnc(/C=N/OC2CCCC2)n1C)c1cccnc1 [I-1-052]	100%	100%	2.14	–
CCN(C)C(=O)c1ncc(C(=O)N(C)c2cccnc2)n1C [I-1-053]	90%	100%	0.87	–
CN(C(=O)c1cnc(C(=O)N2CCCC2)n1C)c1cccnc1 [I-1-054, N,1-Dimethyl-N-(pyridin-3-yl)-2-(pyrrolidin-1-ylcarbonyl)-1H-imidazole-5-carboxamide]	–	–	–	pest or weed control at 500 g/ha [1, 6]: 100%; pest or weed control at 20 ppm [3, 7]: 100%; chromatographic logP [5, 8]: 1.02
CCNC(=S)c1ncc(C(=O)N(C)c2cccnc2)n1C [I-1-057]	90%	100%	1.64	log P[a] ([5]; pH 2.7): 1.21; log P[n] ([5]; pH 7.8): 1.42
CCN(CC)C(=O)c1ncc(C(=O)N(C)c2cccnc2)n1C [I-1-058]	100%	100%	–	logP [n] [5, 11]: 1.11
CN(C(=O)c1cnc(C(=O)NC2CC2)n1C)c1cccnc1 [I-1-062]	100%	100%	1.06	–
COCCNC(=O)c1ncc(C(=O)N(C)c2cccnc2)n1C [I-1-064]	90%	100%	0.94	–

Compound	efficacy in % [1, 6]	efficacy in % [3, 7]	logP [n] ([5]; pH 7.8)	further results
CC(C)CNC(=O)c1ncc(C(=O)N(C)c2cccnc2)n1C [I-1-065]	100%	100%	1.57	–
CCNC(=O)c1ncc(C(=O)N(CC)c2cccnc2)n1C [I-1-066]	100%	100%	1.24	–
CN(C(=O)c1cnc(C(=O)C(C)(C)C#N)n1C)c1cccnc1 [I-1-067]	100%	100%	1.55	–
CCN(C)C(=O)c1ncc(C(=O)N(CC)c2cccnc2)n1C [I-1-068]	100%	90%	1.12	–
CON(C)C(=O)c1ncc(C(=O)N(C)c2cccnc2)n1C [I-1-069, N^2-Methoxy-N^2,N^5,1-trimethyl-N^5-(pyridin-3-yl)-1H-imidazole-2,5-dicarboxamide]	–	–	–	pest or weed control at 500 g/ha [1, 6]: 100%; pest or weed control at 20 ppm [3, 7]: 100%; chromatographic logP [5, 10]: 0.72
CN(C(=O)c1cnc(C(=O)NS(C)(=O)=O)n1C)c1cccnc1 [I-1-070]	–	–	–	Emax at 0.8 ppm ([2]; 120 h, MYZUPE O, 0.8 ppm, 5 dat): 100%; pest or weed control at 20 ppm [3, 7]: 90%; chromatographic logP [5, 8]: -0.2
CN(C(=O)c1cnc(C(=O)N2CCC2)n1C)c1cccnc1 [I-1-071]	90%	100%	0.89	–
CCN(C(=O)c1cnc(C(=O)N(C)C)n1C)c1cccnc1 [I-1-072]	100%	100%	–	logP [n] [5, 11]: 0.88
CN(C(=O)c1cnc(C(=O)NC2(C#N)CC2)n1C)c1cccnc1 [I-1-073]	100%	100%	1.03	–
CCOC(=O)CNC(=O)c1ncc(C(=O)N(C)c2cccnc2)n1C [I-1-075]	90%	100%	1.22	–
CN(C(=O)c1cnc(C(=O)NC(CO)c2ccccc2)n1C)c1cccnc1 (centres unmarked) [I-1-079]	90%	90%	1.39	–
Cc1ccc(N(C)C(=O)c2cnc(C(=O)N(C)C)n2C)cn1 [I-1-080]	90%	100%	–	logP [n] [5, 11]: 0.81
CN(C(=O)c1cnc(C(=O)N(C)S(C)(=O)=O)n1C)c1cccnc1 [I-1-081]	90%	100%	1.11	–
CN(C)C(=O)c1ncc(C(=O)N(c2cccnc2)C2CC2)n1C [I-1-083]	–	–	–	pest or weed control at 500 g/ha [1, 6]: 90%; pest or weed control at 20 ppm [3, 7]: 90%; Emax at 100 g/ha [4, 9]: 90%; chromatographic logP [5, 8]: 1.02
CN(C(=O)c1cnc(C(=O)C2CC2)n1C)c1cccnc1 [I-1-084]	90%	100%	1.32	–
CC(=O)c1ncc(C(=O)N(C)c2cccnc2)n1C [I-1-085]	90%	100%	–	logP [n] [5, 11]: 0.87
